Measured values published in patent publication US8598182B2, “Insecticidal pyrimidinyl aryl hyrdrazones” (Dow AgroSciences, LLC., priority 2007, dated 2013).

Experiments:
[1] = test system: Beet Armyworm (Spodoptera exigua); test: Insecticidal diet-surface test for beet armyworm; format: in vivo; settings: second-instar beet armyworm, 50 ug/cm2 on diet surface, 5 days after treatment, dead insects of 8
Protocol: (§1) The compounds identified in Table 1 were prepared using the procedures illustrated in the foregoing examples, and the compounds were tested against beet armyworm and corn earworm as follows:
(§2) Insecticidal Test for Corn Earworm (Helicoverpa zea) and Beet Armyworm (Spodoptera exigua).
(§3) To prepare test solution, the test compound was formulated at 2000 ppm solution as 4 mg/2 mL of 9 acetone:1 tap water. 50 μL of the 2000 ppm (equivalent to 50 ug/cm^2 dose on diet surface area) test solution was pipetted upon the surface of 1 mL of lepidopteran diet (Southland Multi-Species Lepidopteran Diet) contained in each of eight wells per insect species (one well=1 replication). A second-instar corn earworm and beet armyworm was placed upon the treated diet in each well once the solvent had air-dried. Trays containing the treated diet and larvae were covered and then held in a growth chamber at 25° C., 50-55% RH, and 16 hr light:8 hr dark for 5 days. Observation were conducted 5 days after treatment and infestation. The number of dead insects of 8 per species per treatment was then determined and the results are given in Table 1 as percent control at a dose of […].
(§4) Keys to the table: Mass spectral data were obtained using liquid chromatography mass spectroscopy (LC-MS). The masses are detected using electrospray ionization (ESI) and reported as Mol Ion (M+H, M−H); AVG LAPHEG 50 refers to activity against beet army worm (Spodoptera exigua) as defined above; AVG HELIZE 50 refers to activity against corn ear worm (Helicoverpa zea) as described above.

[2] = test system: Corn Earworm (Helicoverpa zea); test: Insecticidal diet-surface test for corn earworm; format: in vivo; settings: second-instar corn earworm, 50 ug/cm2 on diet surface, 5 days after treatment, dead insects of 8
Protocol: as §1, §2, §3, §4

Structure (SMILES) | LAPHEG 50 (ug/cm2), percent control [1] | HELIZE 50 (ug/cm2), percent control [2]
Fc1cc(Nc2ccc(OC(F)(F)C(F)F)cc2)nc(NN=Cc2ccc(OC(F)(F)F)cc2)n1 [Compound 19] | 50% | 13%
Fc1cc(Nc2ccc(OC(F)(F)C(F)F)cc2)nc(NN=Cc2ccc(OC(F)(F)C(F)F)cc2)n1 [Compound 20] | 50% | 25%
OC(c1ccc(Nc2cc(F)nc(NN=Cc3ccc(OC(F)(F)F)cc3)n2)cc1)(C(F)(F)F)C(F)(F)F [Compound 21] | 100% | 100%
OC(c1ccc(Nc2cc(F)nc(NN=Cc3ccc(OC(F)(F)C(F)F)cc3)n2)cc1)(C(F)(F)F)C(F)(F)F [Compound 22] | 100% | 100%
COc1ccc(/C=N/Nc2nc(Cl)cc(Nc3ccc(F)c(C(F)(F)F)c3)n2)cc1 [Compound 23] | 50% | 38%
Fc1ccc(Nc2cc(Cl)nc(N/N=C/c3cccc(Cl)c3)n2)cc1C(F)(F)F [Compound 24] | 100% | 100%
Clc1ccc(/C=N/Nc2nc(Cl)cc(Nc3ccc(Cl)cc3)n2)cc1 [Compound 25] | 75% | 100%
FC(F)(F)Oc1ccc(/C=N/Nc2nc(Cl)cc(Nc3ccc(Cl)cc3)n2)cc1 [Compound 26] | 100% | 100%
Clc1ccc(Nc2cc(Cl)nc(N/N=C/c3ccc(N4CCCCC4)cc3)n2)cc1 [Compound 27] | 38% | 100%
Clc1ccc(Nc2cc(Cl)nc(N/N=C/c3cccc(Cl)c3)n2)cc1 [Compound 28] | 50% | 50%
COc1ccc(/C=N/Nc2nc(Cl)cc(Nc3ccc(Cl)cc3)n2)cc1 [Compound 29] | 63% | 0%
Fc1ccc(Nc2cc(Cl)nc(N/N=C/c3cccc(OC(F)(F)C(F)F)c3)n2)cc1C(F)(F)F [Compound 30] | 100% | 13%
FC(F)(F)c1ccc(/C=N/Nc2nc(Cl)cc(Nc3cccc(Cl)c3)n2)cc1 [Compound 31] | 100% | 100%
Clc1ccc(/C=N/Nc2nc(Cl)cc(Nc3cccc(Cl)c3)n2)cc1 [Compound 32] | 0% | 88%
N#Cc1ccc(/C=N/Nc2nc(Cl)cc(Nc3cccc(Cl)c3)n2)cc1 [Compound 33] | 13% | 13%
Clc1cc(Nc2cccc(Br)c2)nc(N/N=C/c2ccccc2Cl)n1 [Compound 34] | 25% | 13%
Clc1cccc(/C=N/Nc2nc(Cl)cc(Nc3cccc(Br)c3)n2)c1 [Compound 35] | 0% | 25%
Clc1ccc(/C=N/Nc2nc(Cl)cc(Nc3cccc(Br)c3)n2)cc1 [Compound 36] | 0% | 38%
FC(F)(F)Oc1ccc(/C=N/Nc2nc(Cl)cc(Nc3cccc(Br)c3)n2)cc1 [Compound 37] | 100% | 100%
Clc1cccc(/C=N/Nc2nc(Cl)cc(Nc3cccc(Cl)c3)n2)c1 [Compound 38] | 25% | 0%

Structure (SMILES) | LAPHEG 50 (ug/cm2), percent control [1] | HELIZE 50 (ug/cm2), percent control [2]
FC(F)(F)Oc1ccc(/C=N/Nc2nc(Cl)cc(Nc3cccc(Cl)c3)n2)cc1 [Compound 39] | 100% | 100%
FC(F)(F)c1ccc(/C=N/Nc2nc(Cl)cc(Nc3cccc(Br)c3)n2)cc1 [Compound 40] | 100% | 100%
Fc1ccc(Nc2nc(N/N=C/c3ccc(OC(F)(F)F)cc3)nc(Cl)c2Cl)cc1C(F)(F)F [Compound 41] | 0% | 75%
Fc1ccc(Nc2nc(N/N=C/c3ccc(OC(F)(F)C(F)F)cc3)nc(Cl)c2Cl)cc1C(F)(F)F [Compound 42] | 38% | 38%
Clc1cccc(Nc2cc(Cl)nc(N/N=C/c3ccc(N4CCCCC4)cc3)n2)c1 [Compound 43] | 0% | 63%
Clc1cccc(Nc2cc(Cl)nc(N/N=C/c3ccc(N4CCCC4)cc3)n2)c1 [Compound 44] | 0% | 50%
FC(F)C(F)(F)Oc1cccc(/C=N/Nc2nc(Cl)cc(Nc3ccc(Cl)cc3)n2)c1 [Compound 45] | 63% | 63%
FC(F)(F)c1ccc(/C=N/Nc2nc(Cl)cc(Nc3ccc(Cl)cc3)n2)cc1 [Compound 46] | 100% | 100%
FC(F)C(F)(F)Oc1cccc(Nc2cc(Cl)nc(N/N=C/c3ccc(OC(F)(F)F)cc3)n2)c1 [Compound 47] | 100% | 100%
Fc1ccc(/C=N/Nc2nc(Cl)cc(Nc3cccc(OC(F)(F)C(F)F)c3)n2)cc1C(F)(F)F [Compound 48] | 25% | 88%
OC(c1cccc(Nc2cc(Cl)nc(N/N=C/c3ccc(OC(F)(F)F)cc3)n2)c1)C(F)(F)F (centres unmarked) [Compound 49] | 88% | 50%
OC(c1cccc(Nc2cc(Cl)nc(N/N=C/c3ccc(OC(F)(F)C(F)F)cc3)n2)c1)C(F)(F)F (centres unmarked) [Compound 50] | 63% | 0%
Fc1ccc(/C=N/Nc2nc(Cl)cc(Nc3cccc(Cl)c3)n2)cc1C(F)(F)F [Compound 51] | 75% | 50%
Fc1ccc(/C=N/Nc2nc(Cl)cc(Nc3cccc(Br)c3)n2)cc1C(F)(F)F [Compound 52] | 38% | 75%
CC(C)(C)C(=O)OC(c1cccc(Nc2cc(Cl)nc(N/N=C/c3ccc(OC(F)(F)F)cc3)n2)c1)C(F)(F)F (centres unmarked) [Compound 53] | 38% | 0%
FC(F)(F)Oc1ccc(/C=N/Nc2nc(Nc3cccc(C(F)(F)F)c3)cc(C(F)(F)F)n2)cc1 [Compound 54] | 100% | 100%
FC(F)(F)c1cccc(Nc2cc(C(F)(F)F)nc(N/N=C/c3cccc(Br)c3)n2)c1 [Compound 55] | 75% | 88%
Fc1ccc(Nc2cc(C(F)(F)F)nc(N/N=C/c3ccc(OC(F)(F)F)cc3)n2)cc1C(F)(F)F [Compound 56] | 100% | 100%
Fc1ccc(Nc2cc(C(F)(F)F)nc(N/N=C/c3cccc(Br)c3)n2)cc1C(F)(F)F [Compound 57] | 100% | 100%
CN(/N=C/c1ccc(OC(F)(F)C(F)F)cc1)c1nc(Cl)cc(Nc2ccc(F)c(C(F)(F)F)c2)n1 [Compound 58] | 100% | 100%
